Data as given in patent US10106526B2, “Inhibitors of cyclin-dependent kinase 7 (CDK7)” (SYROS PHARMACEUTICALS, INC., priority 2014, dated 2018).

Key:
CDK7 = target: T1, CDK7 (Homo sapiens, UniProt P50613); assay: CDK7 kinase activity, Adapta kinase assay (Life Technologies); type: biochemical; settings: Adapta kinase assay at Life Technologies; 10 μM down to 0.514 nM, 3-fold serial dilutions; read-out: CDK7 Inhibition (IC50)
T1 construct: purchased Life Technologies (Adapta kinase assay service)
T1 sequence (P50613 whole entry): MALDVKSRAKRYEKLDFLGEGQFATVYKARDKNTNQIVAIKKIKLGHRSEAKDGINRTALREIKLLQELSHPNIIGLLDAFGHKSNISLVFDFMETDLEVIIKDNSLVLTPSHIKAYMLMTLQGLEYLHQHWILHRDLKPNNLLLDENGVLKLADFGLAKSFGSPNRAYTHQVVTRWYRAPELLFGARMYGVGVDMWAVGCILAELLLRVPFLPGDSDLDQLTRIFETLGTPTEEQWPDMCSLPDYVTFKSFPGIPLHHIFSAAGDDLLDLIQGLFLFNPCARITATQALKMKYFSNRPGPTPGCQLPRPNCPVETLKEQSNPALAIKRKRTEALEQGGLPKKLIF
T1 sequence (P51946 whole entry partner): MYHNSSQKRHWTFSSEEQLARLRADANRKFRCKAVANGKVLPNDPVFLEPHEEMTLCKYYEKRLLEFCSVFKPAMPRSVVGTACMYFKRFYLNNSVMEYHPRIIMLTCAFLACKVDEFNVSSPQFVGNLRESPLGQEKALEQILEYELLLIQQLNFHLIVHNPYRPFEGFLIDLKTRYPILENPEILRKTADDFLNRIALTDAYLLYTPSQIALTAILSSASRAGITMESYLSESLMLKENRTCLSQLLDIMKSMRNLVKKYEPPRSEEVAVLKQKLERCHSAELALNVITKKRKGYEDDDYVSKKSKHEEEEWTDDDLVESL
T1 sequence (P51948 whole entry partner): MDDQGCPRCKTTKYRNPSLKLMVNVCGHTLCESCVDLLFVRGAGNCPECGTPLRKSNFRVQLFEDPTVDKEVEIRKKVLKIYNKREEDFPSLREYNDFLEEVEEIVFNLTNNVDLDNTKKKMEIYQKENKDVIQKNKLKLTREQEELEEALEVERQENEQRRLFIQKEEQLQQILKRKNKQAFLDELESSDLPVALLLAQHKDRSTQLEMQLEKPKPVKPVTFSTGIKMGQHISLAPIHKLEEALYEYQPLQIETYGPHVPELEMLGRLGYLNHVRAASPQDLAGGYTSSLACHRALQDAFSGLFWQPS
Summary of the method: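 Adapta kinase activity assay run as a commercial service; substrates not specified here. Compounds tested in 3-fold serial dilutions from 10 μM down to 0.514 nM.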

[1] = target: CDK7/Cyclin H/MAT1 trimeric complex (Homo sapiens, UniProt P50613); assay: CDK7 kinase assay, Caliper/LabChip EZ Reader (Biortus Biosciences); type: biochemical; settings: CDK7/Cyclin H/MAT1 10 nM, ATP 2 mM, FAM-CDK7tide 2 μM, 30 min incubation, read-out: CDK7 Inhibition (IC50)
CDK7/Cyclin H/MAT1 trimeric complex, sequence (P50613 whole entry): as the sequence (P50613 whole entry) above
CDK7/Cyclin H/MAT1 trimeric complex, sequence (P51946 whole entry partner): as the sequence (P51946 whole entry partner) above
CDK7/Cyclin H/MAT1 trimeric complex, sequence (P51948 whole entry partner): as the sequence (P51948 whole entry partner) above
Protocol: Compounds of the invention were further assayed for CDK7 activity at Biortus Biosciences (Jiangyin, Jiangsu Province, P.R. of China) using a CDK7 kinase assay developed with a Caliper/LabChip EZ Reader (Perkin Elmer, Waltham, Mass.). […] The incubation period was chosen such that the total fraction of phosphorylated peptide product produced was <20% for the uninhibited kinase.

A673 cells = assay: Inhibition of proliferation of A673 cells (CyQUANT, 72 hour); type: cell-based, human; settings: 72 hour proliferation
Summary of the method: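 Human Ewing's sarcoma A673 cells in DMEM + 10% FBS + 1 mM sodium pyruvate, 37 °C, 5% CO2, exposed to compounds from 4 μM to 126.4 pM (0.5 log dilutions) for 72 h. Proliferation read by CyQUANT; IC50 reported as binned categories.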

Jurkat cells = assay: Inhibition of proliferation of Jurkat cells (CellTiter-Glo, 72 hour); type: cell-based, human; settings: 10 μM to 316 pM
Summary of the method: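 Human T-cell leukemia Jurkat cells in RPMI 1640 with 10% FBS were exposed 72 h at 37 °C, 5% CO2 to compounds from 10 μM to 316 pM in 0.5-log steps. Anti-proliferative effect measured by CellTiter-Glo; IC50 reported in binned categories.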

SMILES: CN(C)C/C=C/C(=O)Nc1ccc(C(=O)N[C@H]2CCC[C@@H](Nc3ncc(Cl)c(-c4c[nH]c5ccccc45)n3)C2)nc1 [Compound 106, N-((1S,3R)-3-(5-chloro-4-(1H-indol-3-yl)pyrimidin-2-ylamino)cyclohexyl)-5-((E)-4-(dimethylamino)but-2-enamido)picolinamide]
- IC50 (CDK7): < 100 nM
- IC50 [1]: < 100 nM
- IC50 (A673 cells; Homo sapiens): < 500 nM

SMILES: CN(C)CC=CC(=O)N1CC(N(C)C2CCCC(Nc3ncc(Cl)c(-c4c[nH]c5ccccc45)n3)C2)C1 (centres unmarked) [Compound 231]
- IC50 (CDK7): < 100 nM
- IC50 [1]: < 100 nM

SMILES: C=CC(=O)N1CC(F)(F)C[C@H]1C(=O)N[C@H]1CCC[C@@H](Nc2ncc(Cl)c(-c3c[nH]c4ccccc34)n2)C1 [Compound 116, (S)-1-acryloyl-N-((1S,3R)-3-(5-chloro-4-(1H-indol-3-yl)pyrimidin-2-ylamino)cyclohexyl)-4,4-difluoropyrrolidine-2-carboxamide]
- IC50 (CDK7): < 100 nM
- IC50 [1]: < 100 nM
- IC50 (A673 cells; Homo sapiens): < 500 nM

SMILES: C=CC(=O)N1CCN([C@H]2CCC[C@@H](Nc3ncc(Cl)c(-c4c[nH]c5ccccc45)n3)C2)CC1 [Compound 168, 1-(4-((1S,3R)-3-(5-chloro-4-(1H-indol-3-yl)pyrimidin-2-ylamino)cyclohexyl)piperazin-1-yl)prop-2-en-1-One]
- IC50 (CDK7): < 100 nM
- IC50 [1]: < 100 nM
- IC50 (A673 cells; Homo sapiens): < 500 nM

SMILES: CCc1cnc(N[C@@H]2CCC[C@](C)(NCc3ccc(NC(=O)/C=C/CN(C)C)cn3)C2)nc1-c1n[nH]c2ccccc12 [Compound 413, (E)-4-(dimethylamino)-N-[6-[[[(1S,3R)-3-[[5-ethyl-4-(1H-indazol-3-yl)pyrimidin-2-yl]amino]-1-methyl-cyclohexyl]amino]methyl]-3-pyridyl]but-2-enamide]
- IC50 [1]: < 100 nM
- IC50 (A673 cells; Homo sapiens): < 500 nM

SMILES: C=CC(=O)NC1CCCN(C2CCCC(Nc3ncc(Cl)c(-c4c[nH]c5ccccc45)n3)C2)C1 (mixture of isomers) [Compound 256]
- IC50 [1]: < 100 nM
- IC50 (A673 cells): < 500 nM

SMILES: CN(C)C/C=C/C(=O)Nc1ccc(C(=O)N[C@H]2CCC[C@@H](Nc3ncc(C(F)(F)F)c(-c4c[nH]c5ccccc45)n3)C2)nc1 [Compound 248, N-((1S,3R)-3-((4-(1H-indol-3-yl)-5-(trifluoromethyl)pyrimidin-2-yl)amino)cyclohexyl)-5-((E)-4-(dimethylamino)but-2-enamido)picolinamide]
- IC50 (CDK7): < 100 nM
- IC50 [1]: < 100 nM
- IC50 (A673 cells; Homo sapiens): < 500 nM

SMILES: C=CC(=O)N1CCN(CC2(O)CCC[C@@H](Nc3ncc(Cl)c(-c4c[nH]c5ccccc45)n3)C2)CC1 (single isomer, unassigned) [Compound 188]
- IC50 (Jurkat cells): < 500 nM
- IC50 [1]: < 100 nM
- IC50 (A673 cells): < 500 nM

SMILES: C=C(F)C(=O)Nc1ccc(C(=O)N[C@H]2CCC[C@@H](Nc3ncc(Cl)c(-c4c[nH]c5ccccc45)n3)C2)nc1 [compound 402]
- IC50 [1]: 100 to 1000 nM
- IC50 (A673 cells): < 500 nM

SMILES: C=CC(=O)N1CCC[C@@H](NCc2ccc(Nc3ncc(Cl)c(-c4c[nH]c5ccccc45)n3)cc2)C1 [compound 393]
- IC50 [1]: < 100 nM
- IC50 (A673 cells): < 500 nM

SMILES: CN(C)C/C=C/C(=O)Nc1ccc(CN[C@H]2CCC[C@@H](Nc3ncc(Cl)c(-c4c[nH]c5ccccc45)n3)C2)nc1 [Compound 261]
- IC50 [1]: < 100 nM
- IC50 (A673 cells; Homo sapiens): < 500 nM

SMILES: C=CC(=O)N1CCN(C2CCCC(Nc3ncc(Cl)c(-c4c[nH]c5ccccc45)n3)C2)C(C)C1 (centres unmarked) [Compound 260]
- IC50 [1]: < 100 nM
- IC50 (A673 cells): < 500 nM

SMILES: C=CC(=O)N1CCN([C@H]2CCC[C@@H](Nc3ncc(Cl)c(-c4c[nH]c5ccc(C)cc45)n3)C2)CC1 [Compound 340, 1-(4-((1S,3R)-3-(5-chloro-4-(5-methyl-1H-indol-3-yl)pyrimidin-2-ylamino)cyclohexyl)piperazin-1-yl)prop-2-en-1-One]
- IC50 [1]: < 100 nM
- IC50 (A673 cells; Homo sapiens): < 500 nM

SMILES: C=CC(=O)N1CC(F)(F)C[C@H]1C(=O)N[C@H]1CCC[C@@H](Nc2ncc(Cl)c(-c3n[nH]c4ccccc34)n2)C1 [compound 391]
- IC50 [1]: < 100 nM
- IC50 (A673 cells): < 500 nM

SMILES: CCc1cnc(N[C@@H]2CCC[C@](C)(NC(=O)c3ccc(NC(=O)/C=C/CN(C)C)cn3)C2)nc1-c1c(C)[nH]c2ccccc12 [Compound 412, 5-[[(E)-4-(dimethylamino)but-2-enoyl]amino]-N-[(1S,3R)-3-[[5-ethyl-4-(2-methyl-1H-indol-3-yl)pyrimidin-2-yl]amino]-1-methyl-cyclohexyl]pyridine-2-carboxamide]
- IC50 [1]: 100 to 1000 nM
- IC50 (A673 cells; Homo sapiens): < 500 nM

SMILES: CN(C)C/C=C/C(=O)N1CC(F)(F)C[C@H]1C(=O)N[C@H]1CCC[C@@H](Nc2ncc(C#N)c(-c3c[nH]c4ccccc34)n2)C1 [compound 396]
- IC50 [1]: < 100 nM
- IC50 (A673 cells): < 500 nM

SMILES: C=CC(=O)N1CCN(C2CCCC(Nc3ncc(Cl)c(-c4c[nH]c5ccccc45)n3)C2)C(C)C1 (centres unmarked) [Compound 257]
- IC50 [1]: 100 to 1000 nM
- IC50 (A673 cells): < 500 nM

SMILES: CN(C)C/C=C/C(=O)Nc1ccc(C(=O)N[C@H]2CCC[C@@H](Nc3ncc(Cl)c(-c4cccc5c4ccn5C)n3)C2)nc1 [Compound 269, N-((1S,3R)-3-((5-chloro-4-(1-methyl-1H-indol-4-yl)pyrimidin-2-yl)amino)cyclohexyl)-5-((E)-4-(dimethylamino)but-2-enamido)picolinamide]
- IC50 [1]: < 100 nM
- IC50 (A673 cells; Homo sapiens): < 500 nM

SMILES: Cc1cnc(N[C@@H]2CCC[C@H](NC(=O)c3ccc(NC(=O)/C=C/CN(C)C)cn3)C2)nc1-c1c[nH]c2ccccc12 [Compound 265, N-((1S,3R)-3-((4-(1H-indol-3-yl)-5-methylpyrimidin-2-yl)amino)cyclohexyl)-5-((E)-4-(dimethylamino)but-2-enamido)picolinamide]
- IC50 [1]: < 100 nM
- IC50 (A673 cells; Homo sapiens): < 500 nM

SMILES: CN(C)C/C=C/C(=O)N1CCN([C@H]2CCC[C@@H](Nc3ncc(Cl)c(-c4cnc5ccccn45)n3)C2)CC1 [compound 400]
- IC50 [1]: < 100 nM
- IC50 (A673 cells): < 500 nM

SMILES: C=CC(=O)N1CC(F)(F)C[C@H]1C(=O)N[C@H]1CCC[C@@H](Nc2ncc(C#N)c(-c3c[nH]c4ccccc34)n2)C1 [compound 392]
- IC50 [1]: < 100 nM
- IC50 (A673 cells): < 500 nM

SMILES: CN(C)C/C=C/C(=O)Nc1ccc(CN[C@@]2(C)CCC[C@@H](Nc3ncc(C(F)(F)F)c(-c4c[nH]c5ccccc45)n3)C2)nc1 [Compound 403, (E)-4-(dimethylamino)-N-[6-[[[(1S,3R)-3-[[4-(1H-indol-3-yl)-5-(trifluoromethyl)pyrimidin-2-yl]amino]-1-methylcyclohexyl]amino]methyl]-3-pyridyl]but-2-enamide]
- IC50 [1]: < 100 nM
- IC50 (A673 cells; Homo sapiens): < 500 nM

SMILES: C=CC(=O)N1CCN([C@H]2CCC[C@@H](Nc3ncc(Cl)c(-c4c[nH]c5ccc(OC)cc45)n3)C2)CC1 [Compound 375, 1-(4-((1S,3R)-3-(5-chloro-4-(5-methoxy-1H-indol-3-yl)pyrimidin-2-ylamino)cyclohexyl)piperazin-1-yl)prop-2-en-1-One]
- IC50 [1]: > 1000 nM
- IC50 (A673 cells; Homo sapiens): < 500 nM

SMILES: C=CC(=O)N1CCN([C@H]2CCC[C@@H](Nc3ncc(Cl)c(-c4cnc5ccccn45)n3)C2)CC1 [Compound 414, 1-[4-[(1S,3R)-3-[(5-chloro-4-imidazo[1,2-a]pyridin-3-yl-pyrimidin-2-yl)amino]cyclohexyl]piperazin-1-yl]prop-2-en-1-One]
- IC50 [1]: 100 to 1000 nM
- IC50 (A673 cells; Homo sapiens): < 500 nM

SMILES: CN(C)C/C=C/C(=O)N1CC(F)(F)C[C@H]1C(=O)N[C@H]1CCC[C@@H](Nc2ncc(Cl)c(-c3n[nH]c4ccccc34)n2)C1 [compound 404]
- IC50 [1]: < 100 nM
- IC50 (A673 cells): < 500 nM

SMILES: C=CC(=O)N1CCN([C@@]23CCC[C@@](Nc4ncc(Cl)c(-c5c[nH]c6ccccc56)n4)(CC2)C3)CC1 [Compound 409, 1-(4-((1S,5R)-5-(5-chloro-4-(1H-indol-3-yl)pyrimidin-2-ylamino)bicyclo[3.2.1]octan-1-yl)piperazin-1-yl)prop-2-en-1-One]
- IC50 [1]: < 100 nM
- IC50 (A673 cells; Homo sapiens): < 500 nM

SMILES: C=C(F)C(=O)N1CCN([C@H]2CCC[C@@H](Nc3ncc(Cl)c(-c4c[nH]c5ccccc45)n3)C2)CC1 [compound 401]
- IC50 [1]: < 100 nM
- IC50 (A673 cells): < 500 nM

SMILES: C=CC(=O)N1CCC(CNC2(C)CCCC(Nc3ncc(Cl)c(-c4c[nH]c5ccccc45)n3)C2)CC1 (centres unmarked) [Compound 268]
- IC50 [1]: < 100 nM
- IC50 (A673 cells): < 500 nM

SMILES: CCc1cnc(N[C@@H]2CCC[C@](C)(NC(=O)c3ccc(NC(=O)/C=C/CN(C)C)cn3)C2)nc1-c1c[nH]c2ccccc12 [Compound 407, 5-[[(E)-4-(dimethylamino)but-2-enoyl]amino]-N-[(1S,3R)-3-[[5-ethyl-4-(1H-indol-3-yl)pyrimidin-2-yl]amino]-1-methyl-cyclohexyl]pyridine-2-carboxamide]
- IC50 [1]: < 100 nM
- IC50 (A673 cells; Homo sapiens): < 500 nM

SMILES: C=CC(=O)N1CCN([C@]23CCC[C@](Nc4ncc(Cl)c(-c5c[nH]c6ccccc56)n4)(CC2)C3)CC1 [Compound 408, 1-(4-((1R,5S)-5-(5-Chloro-4-(1H-indol-3-yl)pyrimidin-2-ylamino)bicyclo[3.2.1]octan-1-yl)piperazin-1-yl)prop-2-en-1-One]
- IC50 [1]: < 100 nM
- IC50 (A673 cells; Homo sapiens): < 500 nM
